Assay results published in PubChem BioAssay (NCI).
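Compound exposure: 48 hours, 5 concentrations, 96-well plates. GI50 = concentration required for 50% inhibition of growth. TGI: total growth inhibition.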

What was measured:
Experiment in all cases: NCI-60 cell line screen, 48 h
EKVX NSCLC = test system: EKVX NSCLC
HL-60(TB) leukemia = test system: HL-60(TB) leukemia
HS 578T breast = test system: HS 578T breast
M14 melanoma = test system: M14 melanoma
NCI-H23 lung = test system: NCI-H23 lung
OVCAR-3 ovarian = test system: OVCAR-3 ovarian
SF-268 CNS = test system: SF-268 CNS
SF-295 CNS = test system: SF-295 CNS
SN12C renal = test system: SN12C renal
T-47D breast = test system: T-47D breast

| SMILES | TGI (EKVX NSCLC) [µM] | TGI (HL-60(TB) leukemia) [µM] | TGI (HS 578T breast) [µM] | TGI (M14 melanoma) [µM] | TGI (NCI-H23 lung) [µM] | TGI (OVCAR-3 ovarian) [µM] | TGI (SF-268 CNS) [µM] | TGI (SF-295 CNS) [µM] | TGI (SN12C renal) [µM] | TGI (T-47D breast) [µM] | GI50 (EKVX NSCLC) [µM] | GI50 (HL-60(TB) leukemia) [µM] | GI50 (HS 578T breast) [µM] | GI50 (M14 melanoma) [µM] | GI50 (NCI-H23 lung) [µM] | GI50 (OVCAR-3 ovarian) [µM] | GI50 (SF-268 CNS) [µM] | GI50 (SF-295 CNS) [µM] | GI50 (SN12C renal) [µM] | GI50 (T-47D breast) [µM] |
| --- | --- | --- | --- | --- | --- | --- | --- | --- | --- | --- | --- | --- | --- | --- | --- | --- | --- | --- | --- | --- |
| N/C(=N\S(=O)(=O)c1cccc2nsnc12)Nc1ccc(Cl)cc1 | 63.7 | 78 | 68.9 | > 100 | > 100 | > 100 | > 100 | > 100 | > 100 | > 100 |  |  |  |  |  |  |  |  |  |  |
| CC(C)CCC[C@@H](C)[C@H]1CC[C@H]2[C@@H]3CC[C@H]4C[C@H](N)CC[C@]4(C)[C@H]3CC[C@]12C | 43.4 | 68.6 | 76.3 | 38.5 | > 100 | > 100 | > 100 | 45.5 | > 100 | > 100 |  |  |  |  |  |  |  |  |  |  |
| O=C1N(c2ccccc2)C2(c3ccccc3)CC3CCCC13S2 (centres undefined) | > 100 | 61.3 | > 100 | > 100 | > 100 | > 100 | > 100 | > 100 | > 100 | > 100 |  |  |  |  |  |  |  |  |  |  |
| C=CCc1cc(-c2cc(CC=C)c(O)c(CNC)c2)cc(CNC)c1O |  | 35.2 |  | 30.5 | 29.6 | 27.9 | 33.3 | 31 | 31.3 |  |  |  |  |  |  |  |  |  |  |  |
| N#CC(c1nc2ccccc2s1)c1ncnc(Cl)c1[N+](=O)[O-] (centres undefined) | 76.5 |  |  | 34.3 | 32.7 | 47.8 | 32.9 | > 100 | 41.9 | 86.9 |  |  |  |  |  |  |  |  |  |  |
| O=S1(=O)C(c2ccccc2)C(N2CCCCC2)C1C1CC2c3ccccc3C1c1ccccc12 (centres undefined) | > 100 | > 100 | > 100 | > 100 | > 100 | > 100 | > 100 | > 100 | > 100 | > 100 |  |  |  |  |  |  |  |  |  |  |
| COc1cc(/C=N/n2c(Cc3ccc(Cl)cc3)n[nH]c2=O)cc(OC)c1OC | > 100 |  | 27.2 | > 100 | > 100 | > 100 | > 100 | > 100 | > 100 | > 100 |  |  |  |  |  |  |  |  |  |  |
| CC(=O)Nc1ccc(N=C2C(c3ccccc3)=C(SC3=C(c4ccccc4)C(=Nc4ccc(NC(C)=O)cc4)c4ccccc43)c3ccccc32)cc1 | > 100 |  |  | > 100 | 99.8 | > 100 | > 100 | > 100 | > 100 | 48.4 |  |  |  |  |  |  |  |  |  |  |
| O=C1CS(=O)(=O)C(c2cccc(Oc3ccccc3)c2)N1c1cccc(Cl)c1 (centres undefined) | 61.9 | > 100 | 97 | 92.2 | > 100 | 95.1 | 76.7 | > 100 | > 100 | > 100 |  |  |  |  |  |  |  |  |  |  |
| O=c1cc(-c2ccc(O)cc2)n(C2CC2)c2ccccc12 |  | 81.6 | 24.8 | 20.7 | 26.6 | 16.8 | 24.5 | 11.9 | 32.3 | 20.7 |  |  |  |  |  |  |  |  |  |  |
| CCN1C=C/C(=C\C=C/c2cc[n+](CC)c3ccccc23)c2ccccc21 | 47 | 15.1 | 24.6 | 16.9 | 11.7 | 6.81 | 19.6 | 12.5 | 12.3 | 28 |  |  |  |  |  |  |  |  |  |  |
| c1ccc(C2CC(c3cccc(Nc4ccncc4)c3)=NN2c2ccccc2)cc1 (centres undefined) | 3.42 | 3.73 | 3.47 | 3.39 | 3.35 | 3.54 | 3.65 | 3.13 | 3.06 | 4.7 | 1.61 | 1.65 | 1.55 | 1.69 | 1.73 | 1.8 | 1.79 | 1.72 | 1.65 | 2 |
| Cc1ccc(NP(=O)(Oc2ccccc2)N(CCCl)CCCl)cc1 (centres undefined) | > 100 | > 100 |  | > 100 | > 100 | > 100 | > 100 | > 100 | > 100 |  |  |  |  |  |  |  |  |  |  |  |
| O=C(C[C@H](NC(=O)OCc1ccccc1)C(=O)NC1Cc2ccccc2OC1=O)OCc1ccccc1 (some centres undefined) |  |  | > 100 | > 100 | > 100 | > 100 |  |  | > 100 | > 100 |  |  |  |  |  |  |  |  |  |  |
| CCCCCCCCCCCCCCCc1ccc(OCC(O)CO)cc1 (centres undefined) | 78.5 | 85 |  | 33.4 | 35.2 | 49.3 | 82.4 | > 100 | 33.2 |  |  |  |  |  |  |  |  |  |  |  |
| Cn1c(-c2cccs2)cc(-c2ccccc2)c1-c1cccs1 | > 100 | > 100 | > 100 | > 100 | > 100 | 47.6 | > 100 | > 100 | > 100 | > 100 |  |  |  |  |  |  |  |  |  |  |
| Nc1cc2c(nnn2C2OC(COCc3ccccc3)C(OCc3ccccc3)C2OCc2ccccc2)c(=O)[nH]1 (centres undefined) | 46.1 | 28.1 | > 100 | 64.4 | > 100 | > 100 | > 100 | > 100 | 40.3 | > 100 |  |  |  |  |  |  |  |  |  |  |
| CN(C)c1nc(N(C)C)nc(N(C)CN(C)c2ccc(Cl)cc2)n1 |  | > 100 |  |  | > 100 | > 100 | > 100 | > 100 | > 100 |  |  |  |  |  |  |  |  |  |  |  |
| CN(c1cc2ncc(=O)[nH]c2cc1NC(N)=NCc1ccc(Cl)cc1)C1CCCCC1 | 14.5 | 12.7 | 16 | 14.9 | 15.9 | 13.6 | 14.7 | 14.9 | 15.5 | 17 | 6.65 | 5.36 | 6.53 | 7.36 | 8.25 | 6.78 | 6.89 | 7.42 | 7.23 | 5.82 |
